Assay [1] deals with T1, glutathione S-transferase (GST)-fusion human ERK2 protein (Homo sapiens, UniProt P28482).
T1 construct: purchased Carna Biosciences, Inc; host or cells: E. coli expression system
The experiment in a line: ERK2 enzyme assay (LabChip mobility shift). It is filed as biochemical. The conditions noted are these: 2 nM ERK2, 4.25 μM FL-Peptide 8, 43 μM ATP. How it is done:
Evaluation of the ERK2 inhibitory activity of the compound of the present invention was carried out according to the method as described below.
For the ERK2 enzyme assay, a glutathione S-transferase (GST)-fusion human ERK2 protein (Carna Biosciences, Inc.) produced using an E. coli expression system was used.
12 μL of the reaction solution (2 nM ERK2, 100 mM Hepes, 10 mM MgCl2, 1.5 mM DTT, 0.003% Brij35, pH 7.5) including the ERK2 protein and a test compound at a predetermined concentration was incubatedat room temperature for 15 minutes. Thereafter, 3 μL of a mixed solution of FL-Peptide 8 (5-FAM-IPTSPITTTYFFFKKK-COOH) (Caliper Lifescience) which was a substrate and ATP(SIGMA-ALDLICH) were added thereto to a final concentration of 4.25 μM and 43 μM, respectively. The reaction solution was further incubated at 25° C. for 120 minutes to carry out an enzyme reaction.
The enzyme reaction was stopped by adding 27 μL of a reaction-stopping solution (100 mM HEPES, 11.2 mM EDTA, 5.6% Brij35, pH 7.5) including a 0.5% Coating reagent 8 (PerkinElmer, Inc.) after the reaction. Thereafter, non-phosphorylated peptides and phosphorylated peptides were separated using LabChip Ez Reader (Caliper LifeScience, Inc.) to quantify the proportion of phosphorylated peptides.
(§1) The inhibitory activity of the compounds was evaluated using an IC50 (50% inhibitory concentration). The IC50 was calculated using XLfit (IDBS).

The target of assay [2] is T2, human PI3Kα protein (Homo sapiens, UniProt P42336).
T2 construct: purchased Carna Biosciences, Inc; host or cells: Baculovirus expression system
T2 sequence (P42336 whole entry): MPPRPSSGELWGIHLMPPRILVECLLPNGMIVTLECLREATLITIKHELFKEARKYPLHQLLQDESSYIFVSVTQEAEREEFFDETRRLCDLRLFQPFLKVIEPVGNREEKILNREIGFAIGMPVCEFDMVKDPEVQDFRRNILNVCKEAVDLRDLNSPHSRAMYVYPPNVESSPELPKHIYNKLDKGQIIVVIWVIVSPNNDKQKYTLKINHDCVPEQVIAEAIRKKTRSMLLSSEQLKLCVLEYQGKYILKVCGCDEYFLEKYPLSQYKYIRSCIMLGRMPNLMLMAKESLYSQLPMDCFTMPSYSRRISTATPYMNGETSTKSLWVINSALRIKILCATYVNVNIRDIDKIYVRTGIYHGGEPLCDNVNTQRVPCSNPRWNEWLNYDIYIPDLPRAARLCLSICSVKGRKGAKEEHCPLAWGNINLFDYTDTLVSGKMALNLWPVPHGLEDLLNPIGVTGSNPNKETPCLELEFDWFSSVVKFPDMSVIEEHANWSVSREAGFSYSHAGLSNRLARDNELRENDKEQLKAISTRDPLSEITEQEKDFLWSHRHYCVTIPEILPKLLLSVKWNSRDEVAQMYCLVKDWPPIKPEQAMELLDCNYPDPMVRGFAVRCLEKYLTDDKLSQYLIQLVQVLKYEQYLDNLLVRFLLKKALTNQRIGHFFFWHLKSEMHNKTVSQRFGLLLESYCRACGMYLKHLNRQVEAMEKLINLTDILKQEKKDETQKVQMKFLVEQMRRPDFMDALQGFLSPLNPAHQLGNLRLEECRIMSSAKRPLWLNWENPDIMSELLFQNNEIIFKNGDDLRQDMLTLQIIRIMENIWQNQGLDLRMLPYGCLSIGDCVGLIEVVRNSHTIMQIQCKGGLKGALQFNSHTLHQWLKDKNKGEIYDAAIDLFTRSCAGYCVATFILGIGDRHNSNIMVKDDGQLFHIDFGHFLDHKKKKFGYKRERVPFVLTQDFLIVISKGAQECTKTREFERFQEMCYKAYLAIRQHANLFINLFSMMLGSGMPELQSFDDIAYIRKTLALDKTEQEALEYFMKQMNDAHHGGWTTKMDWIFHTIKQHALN
T2 sequence (P27986 whole entry partner): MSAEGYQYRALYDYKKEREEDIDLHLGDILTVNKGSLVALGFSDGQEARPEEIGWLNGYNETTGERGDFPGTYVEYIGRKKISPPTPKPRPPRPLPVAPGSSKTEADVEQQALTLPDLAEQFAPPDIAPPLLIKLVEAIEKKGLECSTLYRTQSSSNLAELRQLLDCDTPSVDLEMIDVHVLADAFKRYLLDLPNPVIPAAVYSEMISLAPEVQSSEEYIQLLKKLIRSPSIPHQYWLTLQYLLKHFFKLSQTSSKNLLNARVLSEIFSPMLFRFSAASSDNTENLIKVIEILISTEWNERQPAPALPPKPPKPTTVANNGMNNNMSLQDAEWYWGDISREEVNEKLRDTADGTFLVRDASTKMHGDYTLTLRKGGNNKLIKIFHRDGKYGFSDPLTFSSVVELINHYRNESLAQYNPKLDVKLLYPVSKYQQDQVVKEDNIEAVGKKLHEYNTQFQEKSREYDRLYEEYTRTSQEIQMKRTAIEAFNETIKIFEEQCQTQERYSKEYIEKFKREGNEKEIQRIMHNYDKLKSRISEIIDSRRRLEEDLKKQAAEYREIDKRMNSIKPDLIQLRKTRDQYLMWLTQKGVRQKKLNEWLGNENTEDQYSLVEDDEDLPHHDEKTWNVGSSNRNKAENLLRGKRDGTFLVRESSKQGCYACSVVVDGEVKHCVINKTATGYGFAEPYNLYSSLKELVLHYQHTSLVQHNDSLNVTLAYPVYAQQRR
The experiment in a line: PI3Kα enzyme assay (ADP-Glo kinase assay). The class given is biochemical. The conditions noted are these: 3 nM PI3Kα, 50 μM PIP2, 100 μM ATP. How it is done: Evaluation of the PI3Kα inhibitory activity of the compound of the present invention was carried out according to the method as described below.
For the PI3Kα enzyme assay, biotinylated product of a human PI3Kα protein produced using a Baculovirus expression system (Carna Biosciences, Inc.) was used. Further, for the detection of the enzyme activity, an ADP-Glo kinase assay (PROMEGA Corporation) was used.
10 μL of a reaction solution (3 nM PI3Kα, 40 mM Tris-HCl, 20 mM MgCl2, 0.1% BSA, pH 7.5) including the human PI3Kα protein and a test compound at a predetermined concentration was incubated at room temperature for 15 minutes. Thereafter, 5 μL of a mixed solution of L-α-Phosphatidylinositol 4,5-diphosphate (PIP2) (SIGMA-ALDLICH) which was a substrate and ATP(SIGMA-ALDLICH) was added thereto to a final concentration of 50 μM and 100 μM, respectively, and the reaction solution was further incubated at 25° C. for 60 minutes to carry out an enzyme reaction.
After the reaction, 15 μL of an ADP-Glo reagent (PROMEGA Corporation) was added and the resulting liquid was incubated at room temperature for 60 minutes, whereby the enzyme reaction was stopped. Thereafter, after further adding 30 μL of a Kinase Detection Reagent (PROMEGA Corporation) and standing the resulting solution at room temperature for 40 minutes, ADP produced by the enzyme reaction was quantified by luminescence intensity.
For the measurement of luminescence intensity, EnVision (PerkinElmer, Inc.) was used.
as §1
(In general: ADP-Glo first removes unused ATP, then detects ADP through luciferase.)

Where [3] appears, read: IC50 class, read-out: ERK2 Inhibitory Activity.
[4] abbreviates: IC50 class, read-out: PI3Kα Inhibitory Activity.

Where two headings read alike, the source gives them in different places.

T1 sequence (P28482 whole entry, the tested form may be a part): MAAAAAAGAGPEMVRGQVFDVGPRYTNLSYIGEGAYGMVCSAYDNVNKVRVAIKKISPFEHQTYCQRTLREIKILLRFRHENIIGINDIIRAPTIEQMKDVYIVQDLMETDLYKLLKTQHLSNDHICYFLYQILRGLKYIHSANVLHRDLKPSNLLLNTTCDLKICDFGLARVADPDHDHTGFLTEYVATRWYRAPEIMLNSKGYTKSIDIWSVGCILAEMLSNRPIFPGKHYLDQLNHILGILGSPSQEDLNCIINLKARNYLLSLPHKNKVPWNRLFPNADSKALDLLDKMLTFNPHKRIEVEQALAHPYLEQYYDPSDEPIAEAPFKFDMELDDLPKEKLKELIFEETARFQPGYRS

In the case of `O=C(NCCCCc1ccccc1)Nc1ccc2ncc(-c3cn[nH]c3)cc2n1` [Compound 0064], the IC50 is less than 3 nM in assay [1] (read-out: ERK2, IC50); less than 100 nM in assay [1] (setting [3]); 50 nM in assay [2] (read-out: PI3Kα, IC50); less than 100 nM in assay [2] (setting [4]).
With `O=C(NCc1ccncc1)Nc1ccc2ncc(-c3cn[nH]c3)cc2n1` [Compound 0103], the IC50 in assay [1] (setting [3]) and in assay [2] (setting [4]) was 100 to 1000 nM throughout.
Take `O=C(Nc1ccc2ncc(-c3ccc4c(c3)OCO4)cc2n1)NC1CCCC1` [Compound 0120]: the IC50 in assay [1] (setting [3]) and in assay [2] (setting [4]) was 100 to 1000 nM throughout.
`O=C(NC[C@H]1CCCO1)Nc1ccc2ncc(-c3cn[nH]c3)cc2n1` [Compound 0192]: the IC50 is less than 100 nM in assay [1] (setting [3]) and 100 to 1000 nM in assay [2] (setting [4]).
Take `COc1cccc(CCCCNC(=O)Nc2ccc3ncc(-c4cn[nH]c4)cc3n2)c1` [Compound 0169]: the IC50 in assay [1] (setting [3]) was less than 100 nM; in assay [2] (setting [4]), 100 to 1000 nM.
For `CN(CCCNC(=O)Nc1ccc2ncc(-c3cn[nH]c3)cc2n1)c1ccccc1` [Compound 0105] the same measures were less than 100 nM and 100 to 1000 nM.
For the molecule `Cc1n[nH]c(C)c1-c1cnc2ccc(NC(=O)NC3CCCC3)nc2c1` [Compound 0049], the IC50 in assay [1] (setting [3]) and in assay [2] (setting [4]) was less than 100 nM throughout.
With `COCCOc1cc(-c2cnc3ccc(NC(=O)NC4CCCC4)nc3c2)ccc1O` [Compound 0021], the IC50 in assay [1] (setting [3]) is less than 100 nM; in assay [2] (setting [4]) it was 100 to 1000 nM.
With `O=C(Nc1ccc2ncc(-c3ccc4[nH]ncc4c3)cc2n1)NC1CCCC1` [Compound 0122], the IC50 in assay [1] (setting [3]) and in assay [2] (setting [4]) was less than 100 nM throughout.
Consider `COCCNCCn1cc(-c2cnc3ccc(NC(=O)NC4CCCC4)nc3c2)cn1` [Compound 0047], for which the values for the IC50 in assay [1] (setting [3]) and in assay [2] (setting [4]) were 100 to 1000 nM and less than 100 nM, respectively.
For `S=C(Nc1ccc2ncc(-c3cnn(CCN4CCOCC4)c3)cc2n1)NC1CCCC1` [Compound 0138] the same measures were less than 100 nM and less than 100 nM.
Consider `CN1CCC(NC(=O)Nc2ccc3ncc(-c4cn[nH]c4)cc3n2)CC1` [Compound 0078], for which the values for the IC50 in assay [1] (setting [3]) and in assay [2] (setting [4]) were 100 to 1000 nM and 1000 to 10000 nM, respectively.
On to `O=C(Nc1ccc2ncc(-c3cnn(CCCN4CCOCC4)c3)cc2n1)N[C@H]1CCN(Cc2ccccc2)C1` [Compound 0176], for which the IC50 in assay [1] (setting [3]) and in assay [2] (setting [4]) was 100 to 1000 nM in each case.
Take `O=C(Nc1ccc2ncc(-c3cn[nH]c3)cc2n1)NC1CC[C@H](O)C1` (stereo partly shown) [Compound 0091]: the IC50 in assay [1] (setting [3]) and in assay [2] (setting [4]) was less than 100 nM throughout.
For `O=C(Nc1ccc2ncc(-c3cn[nH]c3)cc2n1)NC1CCCc2ccccc21` (stereo not shown) [Compound 0065], the IC50 is less than 100 nM in assay [1] (setting [3]) and 100 to 1000 nM in assay [2] (setting [4]).
For `O=C(Nc1ccc2ncc(-c3cn[nH]c3)cc2n1)NC1Cc2ccccc2C1` [Compound 0086], the IC50 in assay [1] (setting [3]) and in assay [2] (setting [4]) was less than 100 nM throughout.
In the case of `O=C(NCc1cccnc1)Nc1ccc2ncc(-c3cn[nH]c3)cc2n1` [Compound 0102], the results for the IC50 in assay [1] (setting [3]) and in assay [2] (setting [4]) were less than 100 nM and 1000 to 10000 nM, respectively.
Taken in the same sequence, the figures for `CCN1CCC(n2cc(-c3cnc4ccc(NC(=O)NC5CCCC5)nc4c3)cn2)CC1` [Compound 0230] were 100 to 1000 nM and less than 100 nM.
Taken in the same sequence, the figures for `CCCCCCNC(=O)Nc1ccc2ncc(-c3cn[nH]c3)cc2n1` [Compound 0057] were less than 100 nM and less than 100 nM.
Regarding `O=C(Nc1ccc2ncc(-c3cnc4ccccc4c3)cc2n1)NC1CCCC1` [Compound 0121], the IC50 in assay [1] (setting [3]) and in assay [2] (setting [4]) was 1000 to 10000 nM throughout.
In the case of `COc1ccc(C(=O)Nc2cnc3ccc(NC(=O)NC4CCCC4)nc3c2)cc1` [Compound 0135], the IC50 in assay [1] (setting [3]) is greater than 10000 nM; in assay [2] (setting [4]), less than 100 nM.
Taken in the same sequence, the figures for `O=C(Nc1ccc2ncc(-c3cn[nH]c3)cc2n1)NC1CCCCC1` [Compound 0061] were less than 100 nM and less than 100 nM.
For the molecule `O=C(NCCc1c[nH]c2ccccc12)Nc1ccc2ncc(-c3cn[nH]c3)cc2n1` [Compound 0112], the IC50 is less than 100 nM in assay [1] (setting [3]) and 100 to 1000 nM in assay [2] (setting [4]).
For `O=C(Nc1ccc2ncc(-c3ccccc3CO)cc2n1)NC1CCCC1` [Compound 0040] the same measures were 100 to 1000 nM and 1000 to 10000 nM.
Taken in the same sequence, the figures for `O=C(NCCCCc1ccccc1)Nc1ccc2ncc(Nc3cn[nH]c3)cc2n1` [Compound 0250] were less than 100 nM and less than 100 nM.
Consider `O=C(NCCCCCc1ccccc1)Nc1ccc2ncc(-c3cn[nH]c3)cc2n1` [Compound 0096], for which the IC50 in assay [1] (setting [3]) is less than 100 nM; in assay [2] (setting [4]), 100 to 1000 nM.
Turning to `Cn1cc(-c2cnc3ccc(NC(=O)NC4CCCC4)nc3c2Cl)cn1` [Compound 0226], the IC50 in assay [1] (setting [3]) and in assay [2] (setting [4]) was less than 100 nM in each case.
On to `O=C(NCCCOc1ccccc1)Nc1ccc2ncc(-c3cn[nH]c3)cc2n1` [Compound 0104], for which the IC50 in assay [1] (setting [3]) is less than 100 nM; in assay [2] (setting [4]), 100 to 1000 nM.
On to `O=C(NCCC(F)(F)F)Nc1ccc2ncc(-c3cn[nH]c3)cc2n1` [Compound 0115], for which the IC50 in assay [1] (setting [3]) and in assay [2] (setting [4]) was less than 100 nM each time.
For `CC(C)(C)OC(=O)C1CCN(c2cnc3ccc(NC(=O)NC4CCCC4)nc3c2)CC1` [Compound 0149], the IC50 in assay [1] (setting [3]) fell in the range of 1000 to 10000 nM; in assay [2] (setting [4]), 100 to 1000 nM.
On to `O=C(Nc1ccc2ncc(N3CC(O)C3)cc2n1)NC1CCCC1` [Compound 0038], for which the IC50 in assay [1] (setting [3]) and in assay [2] (setting [4]) was less than 100 nM in each case.
As for `O=C(Nc1ccc2ncc(-c3cccnc3)cc2n1)NC1CCCC1` [Compound 0005], the IC50 in assay [1] (setting [3]) and in assay [2] (setting [4]) was 100 to 1000 nM each time.
Take `CCCNC(=O)Nc1ccc2ncc(-c3cn[nH]c3)cc2n1` [Compound 0055]: the results for the IC50 in assay [1] (setting [3]) and in assay [2] (setting [4]) were less than 100 nM and 100 to 1000 nM, respectively.
For `O=C(Nc1ccc2ncc(-c3ccncc3)cc2n1)NC1CCCC1` [Compound 0007] the same measures were less than 100 nM and less than 100 nM.
On to `O=C(Nc1ccc2ncc(-c3cn[nH]c3)cc2n1)NC1CCN(Cc2ccccc2)C1` (stereo not shown) [Compound 0069], for which the IC50 in assay [1] (read-out: ERK2, IC50) is less than 3 nM; in assay [1] (setting [3]), less than 100 nM; in assay [2] (read-out: PI3Kα, IC50) it was 133 nM; in assay [2] (setting [4]), 100 to 1000 nM.
For `O=C(Nc1ccc2ncc(-c3cnn(CCCN4CC[C@@H](F)C4)c3)cc2n1)NC1CCCC1` [Compound 0248], the IC50 in assay [1] (setting [3]) and in assay [2] (setting [4]) was less than 100 nM throughout.
Turning to `CN(C)CCCn1cc(-c2cnc3ccc(NC(=O)NC4CCCC4)nc3c2)cn1` [Compound 0210], the IC50 was 100 to 1000 nM in assay [1] (setting [3]) and less than 100 nM in assay [2] (setting [4]).
As to `O=C(NC[C@@H]1CCCO1)Nc1ccc2ncc(-c3cn[nH]c3)cc2n1` [Compound 0193], the IC50 in assay [1] (setting [3]) was less than 100 nM; in assay [2] (setting [4]), 100 to 1000 nM.
For the molecule `Cn1cc(-c2cc3nc(NC(=O)NC4CCCC4)ccc3nc2N)cn1` [Compound 0227], the IC50 in assay [1] (setting [3]) was 1000 to 10000 nM; in assay [2] (setting [4]), less than 100 nM.
For `O=C(Nc1ccc2ncc(-c3cnn(CCCN4CC[C@H](F)C4)c3)cc2n1)NC1CCCC1` [Compound 0247], the IC50 in assay [1] (setting [3]) and in assay [2] (setting [4]) was less than 100 nM each time.
Turning to `CN(C)CCn1cc(-c2cnc3ccc(NC(=S)NC4CCCC4)nc3c2)cn1` [Compound 0209], the IC50 in assay [1] (setting [3]) and in assay [2] (setting [4]) was less than 100 nM in each case.
As to `O=C(Nc1ccc2ncc(-c3ccsc3)cc2n1)NC1CCCC1` [Compound 0118], the IC50 in assay [1] (setting [3]) was less than 100 nM; in assay [2] (setting [4]), 100 to 1000 nM.
